# According to EP3981864A1, “DETERGENT COMPOSITION” (priority 2020, dated 2022):
# Key:
# Assay in all cases: Alpha-dioxygenase activity assay (oxygen consumption, TON)
# Assay type in all cases: biochemical
# Details in all cases: fatty acid 100 µM, enzyme 6 ppm, 50 mM HEPES pH 9.0, 37°C; initial rate of oxygen consumption / enzyme concentration
# [1] = test system: Mycolicibacterium fortuitum αDOX (SEQ ID NO: 7), fatty acid alpha-dioxygenase, K0VMX8, N-terminal His-tag variant SEQ ID NO: 261
# Excerpt: (§1) Mycolicibacterium fortuitum αDOX (SEQ ID NO: 7) is a fatty acid alpha-dioxygenase that converts fatty acids into the corresponding 2-hydroperoxy fatty acids and is included as an example of the present invention. A codon optimized gene (SEQ ID NO: 260) encoding for an alpha-dioxygenase variant (SEQ ID NO: 261), including an N-terminal amino acid sequence containing a His-tag was designed and synthesized by Genscript. After gene synthesis, the protein was expressed and purified. In brief, the complete synthetic gene sequence was subcloned into a pET30a vector using the NdeI/HindIII cloning sites. For heterologous expression, Escherichia coli BL21 (DE3) cells were transformed with the recombinant plasmid and a single colony was inoculated into LB medium containing kanamycin (50 mg/L). A pre-starter culture was then inoculated into flasks containing Magic Media (Thermo Fisher, Catalog # K6803) supplemented with kanamycin (50 mg/L) and incubated at 16 °C for 72 h. At an OD600nm = 0.5 - 1.0, 5-aminolevulinic acid (final concentration 0.5 mM) was added. Cells were harvested by centrifugation at 5000 rpm and 4°C and the pellet was lysed using a bacterial cell lysis buffer (B-PER - Themo Fisher, Waltham, MA). After centrifugation, the supernatant was collected, and the protein was purified by one-step purification using HisPur™ Ni-NTA Spin Columns (Thermo Scientific, Catalog # 88226) and standard protocols known in the art. The protein was concentrated using a 10 kDa MW cutoff Amicon Ultra centrifugal filter unit (Millipore Sigma, Catalog# UFC901024), followed by desalting using a disposable PD-10 50 mM Tris-HCl, 500 mM NaCl, and 10% Glycerol at pH 8.0. The purified enzyme was stored at -80 °C until use.
# (§2) Reactions with alpha-dioxygenases were performed as follows. […] The reaction was incubated for up to 10 minutes at 37°C with 200 rpm agitation and the conversion was monitored using an oxygen sensor. The TON (in s-1) were calculated as the ratio between the initial rate of oxygen consumption (in µM/s) and the concentration of enzyme (in µM). […]
# [2] = test system: Phaeosphaeria nodorum αDOX (SEQ ID NO: 2), fatty acid alpha-dioxygenase, Q0URU2, N-terminal His-tag variant SEQ ID NO: 251
# Excerpt: as §1, with “Phaeosphaeria nodorum” for “Mycolicibacterium fortuitum”, “2)” for “7)”, “250)” for “260)”, “251),” for “261),”, “PD-10 desalting column (GE Healthcare Life Sciences, Catalog# 17085101) and a buffer containing” for “PD-10”, “The purified enzyme was stored at -80 °C until use.” left out
# as §2
# [3] = test system: Streptomyces avermitilis αDOX (SEQ ID NO: 13), fatty acid alpha-dioxygenase, Q82M86, N-terminal His-tag variant SEQ ID NO: 273 (comparative)
# Excerpt: as §1, with “Streptomyces avermitilis αDOX” for “Mycolicibacterium fortuitum αDOX”, “NO: 13)” for “NO: 7)”, “as a comparative” for “as an”, “NO: 272)” for “NO: 260)”, “NO: 273),” for “NO: 261),”, “art. […]” for “art. The protein was concentrated using a 10 kDa MW cutoff Amicon Ultra centrifugal filter unit (Millipore Sigma, Catalog# UFC901024), followed by desalting using a disposable PD-10 50 mM Tris-HCl, 500 mM NaCl, and 10% Glycerol at pH 8.0. The purified enzyme was stored at -80 °C until use.”
# as §2
smiles,measurement,setting,value
CCCCCCCC/C=C\CCCCCCCC(=O)O [Oleic Acid],"Oleic Acid, TON",[1],0.00 s⁻¹
same,"Oleic Acid, TON",[2],0.99 s⁻¹
same,"Oleic Acid, TON",[3],0.00 s⁻¹
CCCCCCCCCCCCCCCC(=O)O [Palmitic Acid],"Palmitic Acid, TON",[1],0.00 s⁻¹
same,"Palmitic Acid, TON",[2],20.63 s⁻¹
same,"Palmitic Acid, TON",[3],0.00 s⁻¹
CCCCCCCCCCCCCCCCCC(=O)O [Stearic Acid],"Stearic Acid, TON",[1],1.66 s⁻¹
same,"Stearic Acid, TON",[2],8.80 s⁻¹
same,"Stearic Acid, TON",[3],0.10 s⁻¹
